Laboratory results as given in PubChem BioAssay (NCI).
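Cells were grown in 96-well plates and exposed to each compound for 48 hours at five concentrations; endpoints were interpolated linearly between bracketing concentrations, or set to the highest concentration if not reached. GI50 is the concentration that inhibits growth by half. TGI marks complete inhibition of growth.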

Assays:
Assay in all cases: inhibition of tumour cell growth, NCI panel, 48 h
OVCAR-4 ovarian = tested on: OVCAR-4 ovarian
SNB-75 CNS = tested on: SNB-75 CNS
NCI-H522 lung = tested on: NCI-H522 lung
DU-145 prostate = tested on: DU-145 prostate
OVCAR-3 ovarian = tested on: OVCAR-3 ovarian
SF-268 CNS = tested on: SF-268 CNS
SK-MEL-5 melanoma = tested on: SK-MEL-5 melanoma
MOLT-4 leukemia = tested on: MOLT-4 leukemia
A549 NSCLC = tested on: A549 NSCLC
HOP-92 NSCLC = tested on: HOP-92 NSCLC
EKVX NSCLC = tested on: EKVX NSCLC
OVCAR-8 ovarian = tested on: OVCAR-8 ovarian
COLO 205 colon = tested on: COLO 205 colon
U251 CNS = tested on: U251 CNS
KM12 colon = tested on: KM12 colon
RXF 393 renal = tested on: RXF 393 renal
A498 renal = tested on: A498 renal
786-0 renal = tested on: 786-0 renal
MDA-MB-435 = tested on: MDA-MB-435
MDA-MB-231 breast = tested on: MDA-MB-231 breast
SN12C renal = tested on: SN12C renal
K-562 leukemia = tested on: K-562 leukemia
MALME-3M melanoma = tested on: MALME-3M melanoma
T-47D breast = tested on: T-47D breast
M14 melanoma = tested on: M14 melanoma
PC-3 prostate = tested on: PC-3 prostate
HT29 colon = tested on: HT29 colon
SF-295 CNS = tested on: SF-295 CNS
HOP-62 NSCLC = tested on: HOP-62 NSCLC
UACC-62 melanoma = tested on: UACC-62 melanoma
SF-539 CNS = tested on: SF-539 CNS
HCT-15 colon = tested on: HCT-15 colon
SNB-19 CNS = tested on: SNB-19 CNS
OVCAR-5 ovarian = tested on: OVCAR-5 ovarian
SW-620 colon = tested on: SW-620 colon
CCRF-CEM leukemia = tested on: CCRF-CEM leukemia
ACHN renal = tested on: ACHN renal
MCF7 breast = tested on: MCF7 breast
UACC-257 melanoma = tested on: UACC-257 melanoma
UO-31 renal = tested on: UO-31 renal
IGROV1 ovarian = tested on: IGROV1 ovarian
HCT-116 colon = tested on: HCT-116 colon
SK-OV-3 ovarian = tested on: SK-OV-3 ovarian
HS 578T breast = tested on: HS 578T breast
CAKI-1 renal = tested on: CAKI-1 renal
BT-549 breast = tested on: BT-549 breast
LOX IMVI melanoma = tested on: LOX IMVI melanoma
NCI/ADR-RES ovarian = tested on: NCI/ADR-RES ovarian
NCI-H460 lung = tested on: NCI-H460 lung
HCC-2998 colon = tested on: HCC-2998 colon
NCI-H23 lung = tested on: NCI-H23 lung
SK-MEL-28 melanoma = tested on: SK-MEL-28 melanoma
NCI-H226 lung = tested on: NCI-H226 lung
RPMI-8226 leukemia = tested on: RPMI-8226 leukemia
TK-10 renal = tested on: TK-10 renal

Cc1ccc(C(C)C)cc1NC(=O)Nc1ccc([N+](=O)[O-])cc1
GI50 (OVCAR-4 ovarian): 3.44 µM | TGI (OVCAR-4 ovarian): 13 µM | GI50 (SNB-75 CNS): 2.52 µM | TGI (SNB-75 CNS): 10.5 µM | GI50 (NCI-H522 lung): 1.38 µM | TGI (NCI-H522 lung): 3.97 µM | GI50 (DU-145 prostate): 2.49 µM | TGI (DU-145 prostate): 12 µM | GI50 (OVCAR-3 ovarian): 1.77 µM | TGI (OVCAR-3 ovarian): 6.28 µM | GI50 (SF-268 CNS): 2.67 µM | TGI (SF-268 CNS): 12.1 µM | GI50 (SK-MEL-5 melanoma): 1.55 µM | TGI (SK-MEL-5 melanoma): 2.9 µM | GI50 (MOLT-4 leukemia): 2.13 µM | TGI (MOLT-4 leukemia): 4.63 µM | GI50 (A549 NSCLC): 2.63 µM | TGI (A549 NSCLC): 11.1 µM | GI50 (HOP-92 NSCLC): 2.42 µM | TGI (HOP-92 NSCLC): 8.89 µM | GI50 (EKVX NSCLC): 2.37 µM | TGI (EKVX NSCLC): 8.01 µM | GI50 (OVCAR-8 ovarian): 3.19 µM | TGI (OVCAR-8 ovarian): 11.6 µM | GI50 (COLO 205 colon): 1.67 µM | TGI (COLO 205 colon): 3.03 µM | GI50 (U251 CNS): 2.25 µM | TGI (U251 CNS): 6.46 µM | GI50 (KM12 colon): 2.25 µM | TGI (KM12 colon): 5.91 µM | GI50 (RXF 393 renal): 2.81 µM | TGI (RXF 393 renal): 13.5 µM | GI50 (A498 renal): 1.19 µM | TGI (A498 renal): 4.45 µM | GI50 (786-0 renal): 2.32 µM | TGI (786-0 renal): 5.29 µM | GI50 (MDA-MB-435): 2.19 µM | TGI (MDA-MB-435): 6.5 µM | GI50 (MDA-MB-231 breast): 1.52 µM | TGI (MDA-MB-231 breast): 3.65 µM | GI50 (SN12C renal): 2.28 µM | TGI (SN12C renal): 8.97 µM | GI50 (K-562 leukemia): 2.96 µM | TGI (K-562 leukemia): 7.74 µM | GI50 (MALME-3M melanoma): 2.02 µM | TGI (MALME-3M melanoma): 6.48 µM | GI50 (T-47D breast): 1.99 µM | TGI (T-47D breast): 7.36 µM | GI50 (M14 melanoma): 2.45 µM | TGI (M14 melanoma): 7.28 µM | GI50 (PC-3 prostate): 2.75 µM | TGI (PC-3 prostate): 12.2 µM | GI50 (HT29 colon): 3.2 µM | TGI (HT29 colon): 10.2 µM | GI50 (SF-295 CNS): 1.84 µM | TGI (SF-295 CNS): 5.11 µM | GI50 (HOP-62 NSCLC): 2.53 µM | TGI (HOP-62 NSCLC): 5.92 µM | GI50 (UACC-62 melanoma): 1.81 µM | TGI (UACC-62 melanoma): 10.2 µM | GI50 (SF-539 CNS): 2.57 µM | TGI (SF-539 CNS): 7.89 µM | GI50 (HCT-15 colon): 2.44 µM | TGI (HCT-15 colon): 8.94 µM | GI50 (SNB-19 CNS): 2.99 µM | TGI (SNB-19 CNS): 12 µM | GI50 (OVCAR-5 ovarian): 2.92 µM | TGI (OVCAR-5 ovarian): 8.99 µM | GI50 (SW-620 colon): 2.89 µM | TGI (SW-620 colon): 10.7 µM | GI50 (CCRF-CEM leukemia): 1.97 µM | TGI (CCRF-CEM leukemia): 5.53 µM | GI50 (ACHN renal): 2.56 µM | TGI (ACHN renal): 7.82 µM | GI50 (MCF7 breast): 1.95 µM | TGI (MCF7 breast): 5.72 µM | GI50 (UACC-257 melanoma): 2.41 µM | TGI (UACC-257 melanoma): 7.71 µM | GI50 (UO-31 renal): 1.54 µM | TGI (UO-31 renal): 5.79 µM | GI50 (IGROV1 ovarian): 1.38 µM | TGI (IGROV1 ovarian): 4.79 µM | GI50 (HCT-116 colon): 2.45 µM | TGI (HCT-116 colon): 7.13 µM | GI50 (SK-OV-3 ovarian): 2.17 µM | TGI (SK-OV-3 ovarian): 5.97 µM | GI50 (HS 578T breast): 1.66 µM | TGI (HS 578T breast): 5.18 µM | GI50 (CAKI-1 renal): 2.1 µM | TGI (CAKI-1 renal): 5.62 µM | GI50 (BT-549 breast): 2.13 µM | TGI (BT-549 breast): 8.21 µM | GI50 (LOX IMVI melanoma): 1.99 µM | TGI (LOX IMVI melanoma): 4.82 µM | GI50 (NCI/ADR-RES ovarian): 2.61 µM | TGI (NCI/ADR-RES ovarian): 7.7 µM | GI50 (NCI-H460 lung): 2.21 µM | TGI (NCI-H460 lung): 5.34 µM | GI50 (HCC-2998 colon): 2.09 µM | TGI (HCC-2998 colon): 5.44 µM | GI50 (NCI-H23 lung): 2.49 µM | TGI (NCI-H23 lung): 7.97 µM | GI50 (SK-MEL-28 melanoma): 2.78 µM | TGI (SK-MEL-28 melanoma): 10.4 µM | GI50 (NCI-H226 lung): 1.77 µM | TGI (NCI-H226 lung): 6.14 µM | GI50 (RPMI-8226 leukemia): 1.57 µM | TGI (RPMI-8226 leukemia): 4.73 µM | GI50 (TK-10 renal): 2.36 µM | TGI (TK-10 renal): 9.44 µM
